Laboratory results taken from patent US20030159953A1, “Carbohydrate medical solution and sulphite stabilisator in a multiple compartment container and use thereof” (priority 2003, published 2003).

Columns and labels:
[1] = Determination of acetaldehyde and formaldehyde (HPLC, 2,4-DNPH derivatives); assay type: physicochemical; details: Example 5: 1.5% glucose solution, sodium bisulphite 0, 0.5, 1 mM added before or after heat sterilisation 121° C. 1 hour
Protocol: Determination of acetaldehyde and formaldehyde: The samples for the determination of acetaldehyde were diluted 20 times to a final volume of 4 ml, prior to analysis. Acetaldehyde was prepared as hydrazone derivatives using 2,4-DNPH as derivative reagent. The standards were prepared in range 1.1-11.4 μM acetaldehyde, and 1.7-16.7 μM formaldehyde. Standards and samples were prepared by adding 2 ml 0.08% (weight/volume) 2,4-DNPH to 4 ml of each sample. The sample were concentrated on a solid phase extraction C18 column (Bond Elut LRC 200 mg/3 ml) and after rinsing with water, eluted with 1.6 ml acetonitrile. The analytical column was a Supelco C18 column (5 μm, 15 cm×4,6 mm). The elution of the substances was performed at constant flow of 1.7 ml/min by using a linear gradient of acetonitrile/water. The percentage acetonitrile/water (volume/volume) was initially 35/65 and at the gradient stop 12 minutes later 80/20. The wavelenght was set at 240 nm and the injected volume was 20 μl. The limit of quantification was for acetaldehyde. 1.1 μM. And for formaldehyde 1.7 μM.

[2] = system: mouse fibroblasts cells L-929; assay: In vitro assay for cytotoxicity (inhibition of cell growth, ICG); assay type: cell-based
Protocol: Medical solutions used for peritoneal dialysis were mixed with one part cell growth medium and 10% (volume/volume) fetal calf serum was added (Wieslander et al., 1991, Kidney Int. 40:77-79). Basal cytotoxicity of medical solution used for peritoneal dialysis were determined on mouse fibroblasts cells L-929 (CCL-1; ATTC, Rockville, Md., USA) as described earlier (Wieslander et al. 1993, Advances in Peritoneal Dialys, 9:31-35) and expressed as inhibition of cellgrowth (ICG).

Structure (SMILES): O=S([O-])O.[Na+] [sodium bisulphite]
- level of acetaldehyde in sterilised solution [1]: decreased levels
- level of formaldehyde in sterilised solution [1]: decreased levels
- inhibition of cell growth (ICG) ([2]; Example 3: bisulphite in glucose compartment, 0-0.5 mM in final solution, 4% glucose, sterilised 121° C. 1 hour, mixed post sterilisation): decrease of the ICG value
- inhibition of cell growth (ICG) ([2]; Example 4: sulphite in electrolyte compartment, concentrations in final solution as in example 3, 4% glucose, sterilised 121° C. 1 hour): decrease of the ICG value
- inhibition of cell growth (ICG) ([2]; Example 5: 1.5% glucose solution, sodium bisulphite 0, 0.5, 1 mM added before or after heat sterilisation 121° C. 1 hour): decrease of the ICG value
